Data from the kinase profiling compilation of Christmann-Franck et al. (2016).

Legend:
Assay in all cases: KINOMEscan competition binding
Settings in all cases: compound 10.0 µM
MKNK1 (human) = MKNK1 (human) (UniProt Q9BUB5)
YSK4 (human) = YSK4 (human) (UniProt Q56UN5)
PIK3CA (human) = PIK3CA (human) (UniProt P42336)
CDKL1 (human) = CDKL1 (human) (UniProt Q00532)
AURKB (human) = AURKB (human) (UniProt Q96GD4)
TRPM6 (human) = TRPM6 (human) (UniProt Q9BX84)
[1] = test system: KIT (human), P10721 [V559D/V654A]
CAMKK1 (human) = CAMKK1 (human) (UniProt Q8N5S9)
DDR1 (human) = DDR1 (human) (UniProt Q08345)
HIPK4 (human) = HIPK4 (human) (UniProt Q8NE63)
PRKCH (human) = PRKCH (human) (UniProt P24723)
TLK1 (human) = TLK1 (human) (UniProt Q9UKI8)
SRPK2 (human) = SRPK2 (human) (UniProt P78362)
TYRO3 (human) = TYRO3 (human) (UniProt Q06418)
FGFR2 (human) = FGFR2 (human) (UniProt P21802)
CDK4 CCND3 (human) = CDK4 CCND3 (human) (UniProt P11802+P30281)
CDK18 (human) = CDK18 (human) (UniProt Q07002)
PIM2 (human) = PIM2 (human) (UniProt Q9P1W9)
RIPK2 (human) = RIPK2 (human) (UniProt O43353)
MUSK (human) = MUSK (human) (UniProt O15146)
PTK2 (human) = PTK2 (human) (UniProt Q05397)
CDK2 (human) = CDK2 (human) (UniProt P24941)
DAPK1 (human) = DAPK1 (human) (UniProt P53355)
PRPF4B (human) = PRPF4B (human) (UniProt Q13523)
AURKC (human) = AURKC (human) (UniProt Q9UQB9)
WEE2 (human) = WEE2 (human) (UniProt P0C1S8)
IRAK4 (human) = IRAK4 (human) (UniProt Q9NWZ3)
SRMS (human) = SRMS (human) (UniProt Q9H3Y6)
NEK7 (human) = NEK7 (human) (UniProt Q8TDX7)
CSNK1E (human) = CSNK1E (human) (UniProt P49674)
MAPK11 (human) = MAPK11 (human) (UniProt Q15759)
FER (human) = FER (human) (UniProt P16591)
TEK (human) = TEK (human) (UniProt Q02763)
STK3 (human) = STK3 (human) (UniProt Q13188)
RIPK4 (human) = RIPK4 (human) (UniProt P57078)
SIK3 (human) = SIK3 (human) (UniProt Q9Y2K2)
[2] = molecular target: JAK1 JH1 catalytic (human) (UniProt P23458)
FGFR4 (human) = FGFR4 (human) (UniProt P22455)
ITK (human) = ITK (human) (UniProt Q08881)
STK38 (human) = STK38 (human) (UniProt Q15208)

Chain of AURKB (human) (Q96GD4 whole entry, looked up): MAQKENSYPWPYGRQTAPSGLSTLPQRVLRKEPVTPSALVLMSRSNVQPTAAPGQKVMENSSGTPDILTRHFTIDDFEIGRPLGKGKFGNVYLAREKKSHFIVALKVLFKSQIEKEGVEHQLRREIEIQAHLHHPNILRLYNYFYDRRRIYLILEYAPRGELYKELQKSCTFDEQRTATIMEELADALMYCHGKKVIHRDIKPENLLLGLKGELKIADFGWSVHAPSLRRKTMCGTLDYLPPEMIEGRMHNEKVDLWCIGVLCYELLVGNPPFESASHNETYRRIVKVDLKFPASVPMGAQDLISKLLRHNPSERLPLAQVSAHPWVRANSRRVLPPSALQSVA
Chain of CAMKK1 (human) (Q8N5S9 whole entry, looked up): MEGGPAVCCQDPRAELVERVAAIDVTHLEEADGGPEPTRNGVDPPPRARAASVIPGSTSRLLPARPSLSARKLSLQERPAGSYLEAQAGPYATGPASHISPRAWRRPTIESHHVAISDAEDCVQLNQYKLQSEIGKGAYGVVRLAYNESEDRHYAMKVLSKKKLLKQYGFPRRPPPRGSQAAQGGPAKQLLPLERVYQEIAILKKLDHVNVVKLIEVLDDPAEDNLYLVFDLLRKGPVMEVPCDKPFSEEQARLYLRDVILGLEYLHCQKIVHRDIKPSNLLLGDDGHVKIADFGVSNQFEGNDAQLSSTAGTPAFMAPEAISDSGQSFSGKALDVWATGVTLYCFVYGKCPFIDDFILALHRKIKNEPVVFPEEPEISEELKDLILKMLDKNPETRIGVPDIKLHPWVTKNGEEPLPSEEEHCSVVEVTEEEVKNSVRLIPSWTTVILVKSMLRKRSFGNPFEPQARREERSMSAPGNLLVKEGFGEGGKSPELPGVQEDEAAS
Chain of CSNK1E (human) (P49674 whole entry, looked up): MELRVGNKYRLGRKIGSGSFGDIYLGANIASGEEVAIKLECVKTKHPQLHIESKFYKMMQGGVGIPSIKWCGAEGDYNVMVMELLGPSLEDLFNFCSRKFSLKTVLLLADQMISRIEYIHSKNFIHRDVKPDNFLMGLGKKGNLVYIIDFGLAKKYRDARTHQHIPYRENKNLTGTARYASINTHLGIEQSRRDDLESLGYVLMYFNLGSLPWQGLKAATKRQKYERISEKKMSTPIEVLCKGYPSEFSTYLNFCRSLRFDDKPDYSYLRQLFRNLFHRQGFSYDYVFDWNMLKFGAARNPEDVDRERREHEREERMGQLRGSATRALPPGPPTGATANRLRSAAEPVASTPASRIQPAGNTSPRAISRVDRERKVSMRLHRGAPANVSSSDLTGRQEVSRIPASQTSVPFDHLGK
Chain of JAK1 JH1 catalytic (human) (P23458 whole entry, looked up): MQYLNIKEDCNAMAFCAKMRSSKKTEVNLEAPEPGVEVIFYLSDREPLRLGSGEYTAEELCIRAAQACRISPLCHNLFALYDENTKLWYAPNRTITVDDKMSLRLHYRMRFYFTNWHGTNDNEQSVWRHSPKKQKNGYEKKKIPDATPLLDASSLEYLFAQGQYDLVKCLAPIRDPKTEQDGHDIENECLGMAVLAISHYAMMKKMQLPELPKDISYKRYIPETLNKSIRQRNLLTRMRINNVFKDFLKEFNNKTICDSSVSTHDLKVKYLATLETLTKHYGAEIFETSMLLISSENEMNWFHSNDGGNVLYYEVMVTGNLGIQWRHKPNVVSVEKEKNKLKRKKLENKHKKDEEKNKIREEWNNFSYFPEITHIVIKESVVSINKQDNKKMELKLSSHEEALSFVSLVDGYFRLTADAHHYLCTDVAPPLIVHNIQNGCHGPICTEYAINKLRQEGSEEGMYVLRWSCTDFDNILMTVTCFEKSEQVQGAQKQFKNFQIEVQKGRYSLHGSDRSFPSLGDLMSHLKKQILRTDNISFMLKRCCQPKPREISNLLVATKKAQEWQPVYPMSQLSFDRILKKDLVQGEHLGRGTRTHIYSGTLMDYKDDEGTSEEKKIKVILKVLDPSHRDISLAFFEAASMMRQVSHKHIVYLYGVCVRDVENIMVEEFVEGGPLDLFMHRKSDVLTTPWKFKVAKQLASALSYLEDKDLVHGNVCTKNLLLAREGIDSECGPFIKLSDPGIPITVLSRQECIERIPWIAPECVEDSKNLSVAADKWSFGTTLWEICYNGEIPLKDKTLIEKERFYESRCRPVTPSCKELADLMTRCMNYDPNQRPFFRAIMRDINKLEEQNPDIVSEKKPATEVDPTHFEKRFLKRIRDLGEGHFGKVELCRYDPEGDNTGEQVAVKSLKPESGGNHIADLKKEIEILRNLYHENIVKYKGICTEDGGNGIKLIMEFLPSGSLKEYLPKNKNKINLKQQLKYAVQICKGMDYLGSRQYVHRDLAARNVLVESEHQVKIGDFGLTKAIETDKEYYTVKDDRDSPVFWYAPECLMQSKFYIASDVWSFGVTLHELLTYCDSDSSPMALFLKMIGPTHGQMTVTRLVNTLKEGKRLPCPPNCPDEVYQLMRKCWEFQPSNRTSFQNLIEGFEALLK
Chain of HIPK4 (human) (Q8NE63 whole entry, looked up): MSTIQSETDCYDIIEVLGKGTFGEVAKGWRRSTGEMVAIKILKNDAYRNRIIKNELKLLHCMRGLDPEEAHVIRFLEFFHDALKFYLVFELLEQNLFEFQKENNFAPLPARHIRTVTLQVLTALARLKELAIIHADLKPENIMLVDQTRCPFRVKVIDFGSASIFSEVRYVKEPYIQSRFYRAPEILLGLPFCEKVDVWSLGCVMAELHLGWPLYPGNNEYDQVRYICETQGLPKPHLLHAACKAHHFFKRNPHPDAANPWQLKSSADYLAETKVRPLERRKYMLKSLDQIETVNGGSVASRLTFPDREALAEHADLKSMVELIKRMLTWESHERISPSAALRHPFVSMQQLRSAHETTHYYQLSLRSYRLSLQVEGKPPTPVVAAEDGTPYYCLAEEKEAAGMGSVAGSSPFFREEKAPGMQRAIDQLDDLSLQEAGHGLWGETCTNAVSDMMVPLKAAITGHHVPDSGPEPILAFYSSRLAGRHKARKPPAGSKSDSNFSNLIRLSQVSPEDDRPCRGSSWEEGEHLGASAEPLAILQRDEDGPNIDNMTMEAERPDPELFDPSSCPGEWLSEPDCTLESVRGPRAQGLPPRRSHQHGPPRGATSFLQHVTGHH
Chain of PRKCH (human) (P24723 whole entry, looked up): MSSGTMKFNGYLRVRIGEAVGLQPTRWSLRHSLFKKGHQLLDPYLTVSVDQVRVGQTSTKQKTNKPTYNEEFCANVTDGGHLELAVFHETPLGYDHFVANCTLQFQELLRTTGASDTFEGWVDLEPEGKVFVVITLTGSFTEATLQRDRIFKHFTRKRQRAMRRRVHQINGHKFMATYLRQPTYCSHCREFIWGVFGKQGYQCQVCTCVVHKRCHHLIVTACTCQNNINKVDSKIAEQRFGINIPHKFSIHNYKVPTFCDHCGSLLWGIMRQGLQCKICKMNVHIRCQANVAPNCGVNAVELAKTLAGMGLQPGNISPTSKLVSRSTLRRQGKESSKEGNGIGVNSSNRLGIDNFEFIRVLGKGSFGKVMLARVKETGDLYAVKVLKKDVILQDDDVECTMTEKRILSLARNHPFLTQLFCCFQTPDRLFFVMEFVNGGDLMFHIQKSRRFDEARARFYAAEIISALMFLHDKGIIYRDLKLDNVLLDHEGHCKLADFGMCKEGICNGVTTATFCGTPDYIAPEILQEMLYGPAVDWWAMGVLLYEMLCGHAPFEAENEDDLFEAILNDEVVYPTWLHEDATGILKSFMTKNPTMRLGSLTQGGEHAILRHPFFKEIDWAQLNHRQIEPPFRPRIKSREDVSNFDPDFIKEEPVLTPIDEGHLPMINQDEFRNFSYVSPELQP
Chain of DDR1 (human) (Q08345 whole entry, looked up): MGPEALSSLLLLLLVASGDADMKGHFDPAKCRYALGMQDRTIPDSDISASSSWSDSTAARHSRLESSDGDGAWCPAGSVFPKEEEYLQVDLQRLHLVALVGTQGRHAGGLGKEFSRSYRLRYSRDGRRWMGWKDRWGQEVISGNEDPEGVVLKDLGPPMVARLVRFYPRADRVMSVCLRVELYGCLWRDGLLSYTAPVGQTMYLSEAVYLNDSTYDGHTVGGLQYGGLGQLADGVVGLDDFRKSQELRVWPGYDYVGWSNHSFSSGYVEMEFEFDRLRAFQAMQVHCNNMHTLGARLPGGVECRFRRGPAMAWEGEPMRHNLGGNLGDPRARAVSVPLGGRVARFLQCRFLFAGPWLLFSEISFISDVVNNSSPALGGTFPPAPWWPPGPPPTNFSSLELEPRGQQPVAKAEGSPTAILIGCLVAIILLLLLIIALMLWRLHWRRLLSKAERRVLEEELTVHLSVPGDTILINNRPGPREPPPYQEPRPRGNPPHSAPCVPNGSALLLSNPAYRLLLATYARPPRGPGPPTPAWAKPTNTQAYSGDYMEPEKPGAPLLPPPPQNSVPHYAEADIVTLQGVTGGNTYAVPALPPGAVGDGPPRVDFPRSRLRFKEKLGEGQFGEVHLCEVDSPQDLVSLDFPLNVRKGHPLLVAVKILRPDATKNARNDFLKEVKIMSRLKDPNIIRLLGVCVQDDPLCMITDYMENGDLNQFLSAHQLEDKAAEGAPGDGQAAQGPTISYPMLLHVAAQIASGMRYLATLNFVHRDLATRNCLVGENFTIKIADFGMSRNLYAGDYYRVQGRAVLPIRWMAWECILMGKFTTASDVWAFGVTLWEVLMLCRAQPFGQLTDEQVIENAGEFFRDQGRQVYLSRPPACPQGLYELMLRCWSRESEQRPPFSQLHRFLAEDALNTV
Chain of NEK7 (human) (Q8TDX7 whole entry, looked up): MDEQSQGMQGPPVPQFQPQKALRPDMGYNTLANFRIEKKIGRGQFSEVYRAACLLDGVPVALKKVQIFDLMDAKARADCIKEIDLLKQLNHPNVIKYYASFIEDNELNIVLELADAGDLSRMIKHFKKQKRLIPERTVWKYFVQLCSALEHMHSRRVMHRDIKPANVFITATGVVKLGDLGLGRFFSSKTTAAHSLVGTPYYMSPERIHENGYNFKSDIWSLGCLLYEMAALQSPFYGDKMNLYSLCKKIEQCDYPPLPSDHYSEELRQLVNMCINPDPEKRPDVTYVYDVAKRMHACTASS

SMILES | kinase still bound, per cent of control (MKNK1 (human)) [%] | kinase still bound, per cent of control (YSK4 (human)) [%] | kinase still bound, per cent of control (PIK3CA (human)) [%] | kinase still bound, per cent of control (CDKL1 (human)) [%] | kinase still bound, per cent of control (AURKB (human)) [%] | kinase still bound, per cent of control (TRPM6 (human)) [%] | kinase still bound, per cent of control [1] [%] | kinase still bound, per cent of control (CAMKK1 (human)) [%] | kinase still bound, per cent of control (DDR1 (human)) [%] | kinase still bound, per cent of control (HIPK4 (human)) [%] | kinase still bound, per cent of control (PRKCH (human)) [%] | kinase still bound, per cent of control (TLK1 (human)) [%] | kinase still bound, per cent of control (SRPK2 (human)) [%] | kinase still bound, per cent of control (TYRO3 (human)) [%] | kinase still bound, per cent of control (FGFR2 (human)) [%] | kinase still bound, per cent of control (CDK4 CCND3 (human)) [%] | kinase still bound, per cent of control (CDK18 (human)) [%] | kinase still bound, per cent of control (PIM2 (human)) [%] | kinase still bound, per cent of control (RIPK2 (human)) [%] | kinase still bound, per cent of control (MUSK (human)) [%] | further results
C=CC(=O)Nc1cc(-n2c(=O)ccc3cnc4ccc(-c5cn[nH]c5)cc4c32)ccc1C | 39 | 1.2 | 24 | 33 | 97 | 71 | 100 | 59 | 67 | 51 | 100 | 100 | 96 | 100 | 94 | 87 | 88 | 69 | 56 | 93 | kinase still bound, per cent of control (PTK2 (human)): 96%; kinase still bound, per cent of control (CDK2 (human)): 84%; kinase still bound, per cent of control (DAPK1 (human)): 70%; kinase still bound, per cent of control (PRPF4B (human)): 84%; kinase still bound, per cent of control (AURKC (human)): 100%; kinase still bound, per cent of control (WEE2 (human)): 95%; kinase still bound, per cent of control (IRAK4 (human)): 36%; kinase still bound, per cent of control (SRMS (human)): 75%; kinase still bound, per cent of control (NEK7 (human)): 100%; kinase still bound, per cent of control (CSNK1E (human)): 88%; kinase still bound, per cent of control (MAPK11 (human)): 89%; kinase still bound, per cent of control (FER (human)): 100%; kinase still bound, per cent of control (TEK (human)): 100%; kinase still bound, per cent of control (STK3 (human)): 100%; kinase still bound, per cent of control (RIPK4 (human)): 67%; kinase still bound, per cent of control (SIK3 (human)): 78%; kinase still bound, per cent of control [2]: 97%; kinase still bound, per cent of control (FGFR4 (human)): 100%; kinase still bound, per cent of control (ITK (human)): 29%; kinase still bound, per cent of control (STK38 (human)): 87%
COc1cc2ncnc(-n3nc(-c4ccccn4)nc3N)c2cc1OC | 51 | 0.45 | 38 | 21 | 0.4 | 61 | 82 | 17 | 88 | 6 | 100 | 46 | 88 | 63 | 76 | 60 | 62 | 78 | 2.6 | 71 | kinase still bound, per cent of control (PTK2 (human)): 80%; kinase still bound, per cent of control (CDK2 (human)): 50%; kinase still bound, per cent of control (DAPK1 (human)): 3.6%; kinase still bound, per cent of control (PRPF4B (human)): 93%; kinase still bound, per cent of control (AURKC (human)): 6.2%; kinase still bound, per cent of control (WEE2 (human)): 100%; kinase still bound, per cent of control (IRAK4 (human)): 5.8%; kinase still bound, per cent of control (SRMS (human)): 27%; kinase still bound, per cent of control (NEK7 (human)): 1.4%; kinase still bound, per cent of control (CSNK1E (human)): 1.6%; kinase still bound, per cent of control (MAPK11 (human)): 8.2%; kinase still bound, per cent of control (FER (human)): 93%; kinase still bound, per cent of control (TEK (human)): 45%; kinase still bound, per cent of control (STK3 (human)): 54%; kinase still bound, per cent of control (RIPK4 (human)): 12%; kinase still bound, per cent of control (SIK3 (human)): 83%; kinase still bound, per cent of control [2]: 100%; kinase still bound, per cent of control (FGFR4 (human)): 96%; kinase still bound, per cent of control (ITK (human)): 100%; kinase still bound, per cent of control (STK38 (human)): 51%
O=C(Nc1cccc(Nc2ncc(Br)c(NCCc3cnc[nH]3)n2)c1)N1CCCC1 | 100 | 0 | 100 | 1.8 | 0 | 76 | 15 | 8.8 | 100 | 2 | 33 | 37 | 5.4 | 85 | 4.6 | 0.35 | 100 | 100 | 58 | 9.4 | kinase still bound, per cent of control (PTK2 (human)): 0.2%; kinase still bound, per cent of control (CDK2 (human)): 43%; kinase still bound, per cent of control (DAPK1 (human)): 1.2%; kinase still bound, per cent of control (PRPF4B (human)): 5.3%; kinase still bound, per cent of control (AURKC (human)): 0%; kinase still bound, per cent of control (WEE2 (human)): 36%; kinase still bound, per cent of control (IRAK4 (human)): 0%; kinase still bound, per cent of control (SRMS (human)): 37%; kinase still bound, per cent of control (NEK7 (human)): 0.5%; kinase still bound, per cent of control (CSNK1E (human)): 70%; kinase still bound, per cent of control (MAPK11 (human)): 90%; kinase still bound, per cent of control (FER (human)): 47%; kinase still bound, per cent of control (TEK (human)): 12%; kinase still bound, per cent of control (STK3 (human)): 0.45%; kinase still bound, per cent of control (RIPK4 (human)): 0.3%; kinase still bound, per cent of control (SIK3 (human)): 7%; kinase still bound, per cent of control [2]: 0.25%; kinase still bound, per cent of control (FGFR4 (human)): 1.8%; kinase still bound, per cent of control (ITK (human)): 4.5%; kinase still bound, per cent of control (STK38 (human)): 35%
